Results reported in PubChem BioAssay (NCI).
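Interpolation was linear, between the two tested concentrations surrounding the appropriate level; five concentrations were tested over 48 hours in 96-well plates. Abbreviation: GI50, concentration required for 50% inhibition of growth. TGI: concentration producing complete growth inhibition.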

Key:
Experiment in all cases: NCI anticancer screen, dose series, 48 h
UACC-62 melanoma = system: UACC-62 melanoma
UO-31 renal = system: UO-31 renal
CAKI-1 renal = system: CAKI-1 renal
DU-145 prostate = system: DU-145 prostate
HCC-2998 colon = system: HCC-2998 colon
MDA-MB-435 = system: MDA-MB-435
LOX IMVI melanoma = system: LOX IMVI melanoma
OVCAR-5 ovarian = system: OVCAR-5 ovarian
MDA-MB-231 breast = system: MDA-MB-231 breast
COLO 205 colon = system: COLO 205 colon

Compound `O=C1c2ccccc2-c2c1c1ccccc1c(=O)n2CCNCCNCCNCCn1c2c(c3ccccc3c1=O)C(=O)c1ccccc1-2` has a GI50 (UACC-62 melanoma) of 379 nM, a TGI (UACC-62 melanoma) of 1540 nM and a GI50 (UO-31 renal) of 1120 nM. It also gave a TGI (UO-31 renal) of 2640 nM, a GI50 (CAKI-1 renal) of 1440 nM and a TGI (CAKI-1 renal) of 4190 nM. For the same compound, the GI50 (DU-145 prostate) was 330 nM, the TGI (DU-145 prostate) was 1760 nM and the GI50 (HCC-2998 colon) was 591 nM. It also gave a TGI (HCC-2998 colon) of 6110 nM, a GI50 (MDA-MB-435) of 993 nM and a TGI (MDA-MB-435) of 4700 nM. The GI50 (LOX IMVI melanoma) was 70.9 nM, the TGI (LOX IMVI melanoma) was 572 nM and the GI50 (OVCAR-5 ovarian) was 449 nM. The GI50 (MDA-MB-231 breast) was 136 nM, the TGI (MDA-MB-231 breast) was 1010 nM and the GI50 (COLO 205 colon) was 1760 nM. It also gave a TGI (COLO 205 colon) greater than 20300 nM.
